pKi: −log10 of the molar value.
Experiments:
[1] = target: human norepinephrine transporter (Homo sapiens, UniProt P23975); assay: Human norepinephrine (hNET) receptor binding, [125I]-RTI-55; settings: membranes of HEK-293 cells transfected with human norepinephrine transporter cDNA; 50 pM [125I]-RTI-55; IC50 converted by Cheng-Prusoff
Protocol: Cell pastes of human embryonic kidney 293 (HEK-293) cells transfected with a human norepinephrine transporter cDNA were prepared. The cell pastes were resuspended in 400 to 700 mL of Krebs-N-2-hydroxyethylpiperazine-N′-2-ethanesulfonic acid (HEPES) assay buffer (25 mM HEPES, 122 mM NaCl, 3 mM KCl, 1.2 mM MgSO4, 1.3 mM CaCl2, and 11 mM glucose, pH 7.4) with a Polytron homogenizer at setting 7 for 30 seconds. Aliquots of membranes (5 mg/mL protein) were stored in liquid nitrogen until used.
The binding assay was set up in Beckman deep-well polypropylene plates with a total volume of 250 μL containing: test compound (concentration of 10^−5M to 10^−12M), cell membranes, and 50 pM [^125I]-RTI-55 ([^125I]-3 beta-(4-iodophenyl)tropan-2 beta-carboxylic acid methyl ester) (Perkin Elmer, NEX-272; specific activity 2200 Ci/mmol). The reaction was incubated by gentle agitation for 90 minutes at room temperature and was terminated by filtration through Whatman GF/C filter plates using a Brandel 96-well plate harvester. Scintillation fluid (100 μL) was added to each well, and bound [^125I]-RTI-55 was determined using a Wallac Trilux Beta Plate Counter. Test compounds were run in duplicate, and specific binding was defined as the difference between binding in the presence and absence of 10 μM desipramine.
Excel and GraphPad Prism software were used for data calculation and analysis. IC50 values were converted to Ki values using the Cheng-Prusoff equation. The Ki values (nM) for the hNET are reported below in Table 13.

[2] = target: human serotonin transporter (Homo sapiens, UniProt P31645); assay: Human serotonin (hSERT) receptor binding, [125I]-RTI-55; settings: membranes of HEK-293 cells transfected with human serotonin transporter cDNA, IC50 converted by Cheng-Prusoff
Protocol: Cell pastes of HEK-293 cells transfected with a human serotonin transporter cDNA were prepared. The cell pastes were resuspended in 400 to 700 ml of Krebs-HEPES assay buffer (25 mM HEPES, 122 mM NaCl, 3 mM KCl, 1.2 mM MgSO4, 1.3 mM CaCl2, and 11 mM glucose, pH 7.4) with a Polytron homogenizer at Setting 7 for 30 seconds. Aliquots of membranes (˜2.5 mg/mL protein) were stored in liquid nitrogen until used.
Assays were set up in FlashPlates pre-coated with 0.1% polyethyleneimine (PEI) in a total volume of 250 μL containing: test compound (concentration 10^−5M to 10^−12M), cell membranes, and […] [^125I]-RTI-55 (Perkin Elmer, NEX-272; specific activity 2200 Ci/mmol). The reaction was incubated and gently agitated for 90 minutes at room temperature, and terminated by removal of assay volume. Plates were covered, and bound [^125I]-RTI-55 was determined using a Wallac Trilux Beta Plate Counter. Test compounds were run in duplicate, and specific binding was defined as the difference between binding in the presence and absence of 10 μM citalopram.
Excel and GraphPad Prism software were used for data calculation and analysis. IC50 values were converted to Ki values using the Cheng-Prusoff equation.

Chain of human serotonin transporter (P31645 whole entry): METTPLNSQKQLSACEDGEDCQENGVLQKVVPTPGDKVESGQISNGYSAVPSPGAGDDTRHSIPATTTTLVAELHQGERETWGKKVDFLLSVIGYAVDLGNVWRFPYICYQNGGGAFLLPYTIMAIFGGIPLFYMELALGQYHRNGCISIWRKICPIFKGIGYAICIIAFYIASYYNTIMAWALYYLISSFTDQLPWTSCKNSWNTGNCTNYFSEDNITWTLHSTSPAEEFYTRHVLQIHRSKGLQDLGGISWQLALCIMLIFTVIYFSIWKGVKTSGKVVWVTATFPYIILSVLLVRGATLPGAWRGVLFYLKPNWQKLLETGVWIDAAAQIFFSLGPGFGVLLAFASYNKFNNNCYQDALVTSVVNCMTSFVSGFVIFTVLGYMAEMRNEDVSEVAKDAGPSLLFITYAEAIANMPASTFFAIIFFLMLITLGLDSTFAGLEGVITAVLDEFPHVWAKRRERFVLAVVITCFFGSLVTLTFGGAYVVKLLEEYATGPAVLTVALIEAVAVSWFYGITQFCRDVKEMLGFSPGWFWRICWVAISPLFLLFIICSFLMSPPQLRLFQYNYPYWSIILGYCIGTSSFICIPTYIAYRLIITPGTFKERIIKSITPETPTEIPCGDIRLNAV
Chain of human norepinephrine transporter (P23975 whole entry): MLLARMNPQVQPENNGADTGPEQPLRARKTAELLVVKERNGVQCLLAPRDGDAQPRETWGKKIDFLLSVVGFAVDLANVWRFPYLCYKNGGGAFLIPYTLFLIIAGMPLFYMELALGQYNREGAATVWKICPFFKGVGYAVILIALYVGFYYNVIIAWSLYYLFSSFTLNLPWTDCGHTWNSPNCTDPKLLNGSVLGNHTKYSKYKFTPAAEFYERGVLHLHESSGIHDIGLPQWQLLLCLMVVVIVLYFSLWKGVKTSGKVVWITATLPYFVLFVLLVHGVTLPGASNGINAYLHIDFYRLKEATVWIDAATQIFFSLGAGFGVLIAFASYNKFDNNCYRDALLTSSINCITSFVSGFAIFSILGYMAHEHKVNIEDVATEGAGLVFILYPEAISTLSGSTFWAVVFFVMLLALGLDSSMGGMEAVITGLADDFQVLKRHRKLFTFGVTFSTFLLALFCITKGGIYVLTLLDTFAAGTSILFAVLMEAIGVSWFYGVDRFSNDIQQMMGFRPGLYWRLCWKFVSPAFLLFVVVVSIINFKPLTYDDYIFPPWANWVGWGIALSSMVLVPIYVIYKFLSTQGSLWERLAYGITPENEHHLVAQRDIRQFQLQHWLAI

pKi [1]	pKi [2]	Structure (SMILES)
8.15	6.37	CCOc1ccccc1OC(c1ccccc1)[C@H]1CCCNC1 (mixture of isomers) [Example 106, (S)-3-[(2-ethoxy-phenoxy)-(R,S)-phenyl-methyl]-piperidine fumaric acid]
8.40	6.82	Fc1ccc(Oc2ncccc2OC(c2ccccc2)C2CCCNC2)cc1 (single isomer, unassigned; stereoisomer a) [Example 88, 2-(4-fluoro-phenoxy)-3-[((R or S)-phenyl)-((S)-piperidin-3-yl)-methoxy]-pyridine fumaric acid, stereoisomer A]
8.70	7.15	CCOc1ncccc1OC(c1ccccc1)C1CCCNC1 (single isomer, unassigned; stereoisomer a) [Example 90, 2-ethoxy-3-[((R or S)-phenyl)-((S)-piperidin-3-yl)-methoxy]-pyridine fumaric acid, stereoisomer A]
7.37	6.23	Fc1ccc(Oc2ncccc2OC(c2ccccc2)C2CCCNC2)cc1 (single isomer, unassigned; stereoisomer b) [Example 89, 2-(4-fluoro-phenoxy)-3-[((R or S)-phenyl)-((S)-piperidin-3-yl)-methoxy]-pyridine fumaric acid, stereoisomer B]
7.00	6.37	CCOc1ncccc1OC(c1ccccc1)C1CCCNC1 (single isomer, unassigned; stereoisomer b) [Example 91, 2-ethoxy-3-[((R or S)-phenyl)-((S)-piperidin-3-yl)-methoxy]-pyridine fumaric acid, stereoisomer B]
7.55	6.24	Cc1ccc(OC[C@H]2CCCNC2)c(Oc2ccc(F)cc2C)n1 [Example 1, (S)-2-(4-fluoro-2-methyl-phenoxy)-6-methyl-3-(piperidin-3-ylmethoxy)-pyridine fumaric acid]
7.77	≤ 5.00	Cc1ccc(OC[C@H]2CCCNC2)c(Oc2c(C)cccc2C)n1 [Example 2, (S)-2-(2,6-dimethyl-phenoxy)-6-methyl-3-(piperidin-3-ylmethoxy)-pyridine fumaric acid]
8.66	5.92	COc1ccccc1Oc1nc(C)ccc1OC[C@H]1CCCNC1 [Example 3, (S)-2-(2-methoxy-phenoxy)-6-methyl-3-(piperidin-3-ylmethoxy)-pyridine fumaric acid]
8.08	5.55	Cc1ccc(OC[C@H]2CCCNC2)c(Oc2ccccc2C)n1 [Example 5, (S)-2-(2-methyl-phenoxy)-6-methyl-3-(piperidin-3-ylmethoxy)-pyridine fumaric acid]
8.57	6.46	Cc1ccc(OC[C@H]2CCCNC2)c(Oc2ccccc2Cl)n1 [Example 7, (S)-2-(2-chloro-phenoxy)-6-methyl-3-(piperidin-3-ylmethoxy)-pyridine fumaric acid]
5.49	≤ 5.00	COc1cccc(Oc2nc(C)ccc2OC[C@H]2CCCNC2)c1OC [Example 9, (S)-2-(2,3-dimethoxy-phenoxy)-6-methyl-3-(piperidin-3-ylmethoxy)-pyridine fumaric acid]
8.00	5.59	Cc1ccc(OC[C@H]2CCCNC2)c(Oc2ccccc2OC(C)C)n1 [Example 10, (S)-2-[2-(1-methyl-ethoxy)-phenoxy]-6-methyl-3-(piperidin-3-ylmethoxy)-pyridine fumaric acid]
8.05	6.85	Cc1ccc(OC[C@H]2CCCNC2)c(Oc2ccc(Cl)cc2)n1 [Example 13, (S)-2-(4-chloro-phenoxy)-6-methyl-3-(piperidin-3-ylmethoxy)-pyridine fumaric acid]
8.01	6.54	Cc1ccc(OC[C@H]2CCCNC2)c(Oc2cccc(Cl)c2)n1 [Example 15, (S)-2-(3-chloro-phenoxy)-6-methyl-3-(piperidin-3-ylmethoxy)-pyridine fumaric acid]
5.59	5.77	Cc1ccc(OC[C@H]2CCCNC2)c(Oc2cc(C)c(Cl)cc2C(C)C)n1 [Example 16, (S)-2-[4-chloro-5-methyl-2-(1-methyl-ethyl)-phenoxy]-6-methyl-3-(piperidin-3-ylmethoxy)-pyridine fumaric acid]
7.92	7.20	Cc1ccc(OC[C@H]2CCCNC2)c(Oc2ccc(Cl)c(Cl)c2)n1 [Example 17, (S)-2-(3,4-dichloro-phenoxy)-6-methyl-3-(piperidin-3-ylmethoxy)-pyridine fumaric acid]
7.27	6.21	Cc1ccc(OC[C@H]2CCCNC2)c(Oc2ccc3c(c2)CCC3)n1 [Example 18, (S)-2-(2,3-dihydro-1H-inden-5-yloxy)-6-methyl-3-(piperidin-3-ylmethoxy)pyridine fumaric acid]
7.07	5.72	Cc1ccc(OC[C@H]2CCCNC2)c(Oc2cccc3c2CCCC3)n1 [Example 19, (S)-6-methyl-3-(piperidin-3-ylmethoxy)-2-(5,6,7,8-tetrahydronaphthalen-1-yloxy)-pyridine fumaric acid]
5.32	5.62	Cc1ccc(OC[C@H]2CCCNC2)c(Oc2ccc(C(C)C)cc2)n1 [Example 20, (S)-2-[4-(1-methyl-ethyl)-phenoxy]-6-methyl-3-(piperidin-3-ylmethoxy)-pyridine fumaric acid]
8.31	7.14	COc1cccc(F)c1Oc1nc(C)ccc1OC[C@H]1CCCNC1 [Example 21, (S)-2-(2-fluoro-6-methoxy-phenoxy)-6-methyl-3-(piperidin-3-ylmethoxy)-pyridine fumaric acid]
8.33	7.10	Cc1ccc(OC[C@H]2CCCNC2)c(Oc2ccc(Cl)cc2Cl)n1 [Example 22, (S)-2-(2,4-dichloro-phenoxy)-6-methyl-3-(piperidin-3-ylmethoxy)-pyridine fumaric acid]
8.57	6.80	Cc1ccc(OC[C@H]2CCCNC2)c(Oc2ccc(F)cc2Cl)n1 [Example 24, (S)-2-(2-chloro-4-fluoro-phenoxy)-6-methyl-3-(piperidin-3-ylmethoxy)-pyridine fumaric acid]
7.74	6.07	COc1ccc(Oc2nc(C)ccc2OC[C@H]2CCCNC2)c(Cl)c1 [Example 26, (S)-2-(2-chloro-4-methoxy-phenoxy)-6-methyl-3-(piperidin-3-ylmethoxy)-pyridine fumaric acid]
6.51	6.25	Cc1ccc(OC[C@H]2CCCNC2)c(Oc2cccc(C(F)(F)F)c2)n1 [Example 27, (S)-6-methyl-2-(3-trifluoromethy-phenoxy)-3-(piperidin-3-ylmethoxy)-pyridine fumaric acid]
8.21	6.52	COc1cc(F)ccc1Oc1nc(C)ccc1OC[C@H]1CCCNC1 [Example 28, (S)-2-(4-fluoro-2-methoxy-phenoxy)-6-methyl-3-(piperidin-3-ylmethoxy)-pyridine fumaric acid]
7.82	6.64	COc1ccc(Oc2nc(C)ccc2OC[C@H]2CCCNC2)c(F)c1 [Example 30, (S)-2-(2-fluoro-4-methoxy-phenoxy)-6-methyl-3-(piperidin-3-ylmethoxy)-pyridine fumaric acid]
8.08	7.00	Cc1ccc(OC[C@H]2CCCNC2)c(Oc2ccc(Cl)c(F)c2)n1 [Example 31, (S)-2-(4-chloro-3-fluoro-phenoxy)-6-methyl-3-(piperidin-3-ylmethoxy)-pyridine fumaric acid]

Structure (SMILES)	pKi [1]	pKi [2]
CC(C)COc1ncccc1OC(c1ccccc1)[C@H]1CCCNC1 (single isomer, unassigned; stereoisomer a) [Example 92, 2-isobutoxy-3-[((R or S)-phenyl)-((S)-piperidin-3-yl)-methoxy]-pyridine fumaric acid, stereoisomer A]	7.54	6.85
CC(C)COc1cccc(F)c1OC[C@H]1CCCNC1 [Example 104, (S)-3-(2-fluoro-6-isobutoxy-phenoxymethyl)-piperidine fumaric acid]	7.59	

From patent US20100120858A1, “Piperidine Derivatives” (Pfizer Inc., priority 2006, published 2010)
